Twelve compounds from patent US8383616B2, “Aryl isoxazole compounds with antitumoural activities” (Sigma-Tau Industrie Farmaceutiche Riunite SpA, priority 2008, dated 2013) can be followed below.

A value given as a limit tells only on which side of the number the result lay.

The target in experiment [1] is T1, Hsp90 (Homo sapiens, UniProt P07900).
T1 construct: purchased Stressgen SPP-776
Kind of experiment: Fluorescence polarization (FP) binding assay, displacement of GM-BODIPY. Particulars: GM-BODIPY tracer, 125 nM Hsp90, 4 h at 4° C.; read-out: F.P. binding assay IC50. How it is done:
Fluorescence Polarization (FP)
GM-BODIPY (PerkinElmer, CUSN60342000MG) was previously dissolved in DMSO to obtain 10 mM stock solutions and kept at −20° C. until use.
The compounds were previously dissolved in DMSO to obtain stock solutions and kept at −20° C. The day of experiment, the compounds were prepared by serial dilutions in HFB. Before each use, 0.1 mg/ml Bovine Gamma globulin and 2 mM DTT were freshly added.
The plate was mixed on a shaker at 4° C. for 4 hours, and the FP values in mP (millipolarization units) were recorded. […] Curve fitting was performed using Prism GraphPad software program (GraphPad software, Inc., San Diego, Calif.).
Curve fitting was performed using Prism GraphPad software program (GraphPad software, Inc., San Diego, Calif.).

Experiment [2] has as its system human epithelial carcinoma cell line A431. Kind of experiment: Cytotoxicity assay (sulphorodamine B test), A431. In kind it is cell-based. Particulars: Homo sapiens, A-431, 72-h exposure. How it is done: (§1) Tumour cells were seeded in 96-well tissue culture plates at approximately 10% confluence and were allowed to attach and recover for at least 24 h. Varying concentrations of the drugs were then added to each well to calculate their IC50 value (the concentration which inhibits the 50% of cell survival). The plates were incubated at 37° C. for 72 h. At the end of the treatment, the plates were washed by removal of the supernatant and addition of phosphate buffered saline (PBS) 3 times. 200 μl PBS and 50 μl of cold 80% trichloroacetic acid (TCA) were added. The plates were incubated on ice for at least 1 h. TCA was removed, the plates were washed 3 times by immersion in distilled water and dried on paper and at 40° C. for 5 min. Then 200 μl of 0.4% sulphorodamine B in 1% acetic acid were added. The plates were incubated at RT for 30 min. Sulphorodamine B was removed, the plates were washed by immersion in 1% acetic acid for 3 times, then they were dried on paper and at 40° C. for 5 min. Then, 200 μl Tris 10 mM were added, the plates were kept under stirring for 20 min. The cell survival was determined as optical density by a Multiskan spectrofluorimeter at 540 nm. The amount of cells killed was calculated as the percentage decrease in sulphorodamine B binding compared with control cultures.
(§2) The IC50 values were calculated with the “ALLFIT” program.
The antiproliferative activity of novel Hsp90 inhibitors was evaluated on NCI-H460 non-small cell lung carcinoma cells and on a human epithelial carcinoma cell line A431.
(§3) The antiproliferative IC50 was evaluated as drug concentration required for 50% reduction of cell growth as compared with untreated controls after 72-h exposure to the drug. The IC50±SD values reported were calculated by ALLFIT program.

The subject of experiment [3] is NCI-H460 non-small cell lung carcinoma cells. Nature of the experiment: Cytotoxicity assay (sulphorodamine B test), NCI-H460. Particulars: Homo sapiens, NCI-H460, 72-h exposure. The format is cell-based. On the procedure:
To evaluate the effect of the compounds on cells survival, the sulphorodamine B test was used. To test the effects of the compounds on cell growth, NCI-H460 non-small cell lung carcinoma cells were used. Tumour cells were grown in RPMI 1640 containing 10% fetal bovine serum (GIBCO).
as §1, §2, §3

Turning to `CCNC(=O)c1noc(-c2cc(Cl)c(O)cc2O)c1NCc1ccc(OC)cc1` [Example 27, 4-(4-methoxybenzylamino)-5-(5-chloro-2,4-dihydroxyphenyl)-N-ethylisoxazole-3-carboxamide], the IC50 in experiment [1] lay within 0.1 to 1 µM; in experiment [2], 1 to 10 µM; in experiment [3], 1 to 10 µM.
Consider `CCNC(=O)c1noc(-c2cc(C(C)C)c(O)cc2O)c1NC(=O)C1CCCCC1` [Example 19, 4-(cyclohexanecarbonyl-amino)-5-(2,4-dihydroxy-5-isopropyl-phenyl)-isoxazole-3-carboxylic acid ethylamide], for which the IC50 in experiment [1] is 0.1 to 1 µM; in experiment [2], < 0.1 µM; in experiment [3], < 0.1 µM.
Consider `CCNC(=O)c1noc(-c2cc(Cl)c(O)cc2O)c1NC(=O)C(C)(C)C` [Example 5, 5-(5-chloro-2,4-dihydroxy-phenyl)-4-(2,2-dimethyl-propionylamino)-isoxazole-3-carboxylic acid ethylamide], for which the IC50 is < 0.1 µM in experiment [1], < 0.1 µM in experiment [2] and 0.1 to 1 µM in experiment [3].
On to `CCNC(=O)c1noc(-c2cc(C(C)C)c(O)cc2O)c1NC(=O)c1sccc1C` [Example 14, 5-(2,4-dihydroxy-5-isopropyl-phenyl)-4-[(3-methyl-thiophene-2-carbonyl)-amino]-isoxazole-3-carboxylic acid ethylamide], for which the IC50 in experiment [1], in experiment [2] and in experiment [3] was < 0.1 µM in each case.
As for `CCNC(=O)c1noc(-c2cc(C(C)C)c(O)cc2O)c1NC(=O)CCN1CCN(C)CC1` [Example 16, 4-(3-(4-methylpiperazin-1-yl)propanamido)-N-ethyl-5-(2,4-dihydroxy-5-isopropylphenyl)-isoxazole-3-carboxamide], the IC50 was in the range of 0.1 to 1 µM in experiment [1], 0.1 to 1 µM in experiment [2] and 1 to 10 µM in experiment [3].
Consider `CCNC(=O)c1noc(-c2cc(Cl)c(O)cc2O)c1NC(=O)c1ccc(OC)cc1` [Example 2, 5-(5-chloro-2,4-dihydroxy-phenyl)-4-(4-methoxy-benzoylamino)-isoxazole-3-carboxylic acid ethylamide], for which the IC50 in experiment [1] lay within 0.1 to 1 µM; in experiment [2] it was 0.1 to 1 µM; in experiment [3], 1 to 10 µM.
For the compound `CCNC(=O)c1noc(-c2cc(Cl)c(O)cc2O)c1NCc1cc(CO)no1` [Example 32, 4-((3-(hydroxymethyl)isoxazol-5-yl)methylamino)-5-(5-chloro-2,4-dihydroxyphenyl)-N-ethylisoxazole-3-carboxamide], the results for the concentration for half-maximal inhibition (IC50) in experiment [1], in experiment [2] and in experiment [3] were 0.1 to 1 µM, 1 to 10 µM and 1 to 10 µM, respectively.
With `CCNC(=O)c1noc(-c2cc(Cl)c(O)cc2O)c1NC1CCCCC1` [Example 29, 5-(5-chloro-2,4-dihydroxyphenyl)-4-(cyclohexylamino)-N-ethylisoxazole-3-carboxamide], the IC50 in experiment [1] lay within 0.1 to 1 µM; in experiment [2] it was 1 to 10 µM; in experiment [3], 1 to 10 µM.
Regarding `CCNC(=O)c1noc(-c2cc(Cl)c(O)cc2O)c1NC(=O)c1cc(OC)c(OC)c(OC)c1` [Example 4, 5-(5-chloro-2,4-dihydroxy-phenyl)-4-(3,4,5-trimethoxy-benzoylamino)-isoxazole-3-carboxylic acid ethylamide], the IC50 in experiment [1], in experiment [2] and in experiment [3] was 0.1 to 1 µM throughout.
For the compound `C=CC(=O)Nc1c(C(=O)NCC)noc1-c1cc(Cl)c(O)cc1O` [Example 7, 4-acryloylamino-5-(5-chloro-2,4-dihydroxy-phenyl)-isoxazole-3-carboxylic acid ethylamide], the IC50 in experiment [1] fell in the range of 0.1 to 1 µM; in experiment [2], 0.1 to 1 µM; in experiment [3], 1 to 10 µM.
`CCNC(=O)c1noc(-c2cc(Cl)c(O)cc2O)c1NC(=O)c1sccc1C` [Example 8, 5-(5-chloro-2,4-dihydroxy-phenyl)-4-[(3-methyl-thiophene-2-carbonyl)-amino]-isoxazole-3-carboxylic acid ethylamide]: the IC50 is < 0.1 µM in experiment [1], < 0.1 µM in experiment [2] and 0.1 to 1 µM in experiment [3].
As for `CCNC(=O)c1noc(-c2cc(Cl)c(O)cc2O)c1NC(=O)c1ccc(Br)cc1` [Example 10, 4-(4-bromo-benzoylamino)-5-(5-chloro-2,4-dihydroxy-phenyl)-isoxazole-3-carboxylic acid ethylamide], the IC50 in experiment [1] fell in the range of 0.1 to 1 µM; in experiment [2] it was 0.1 to 1 µM; in experiment [3] it was 1 to 10 µM.

By IC50 is commonly meant the concentration that gives 50% inhibition.
